#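 Protocol summary: plate cells (96-well), add compound at 5 concentrations, incubate 48 h, interpolate endpoints linearly. GI50: concentration for 50% inhibition of growth. TGI denotes the concentration required for complete inhibition of growth.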
# Test system: HCT-116 colon
# Assay: DTP human tumour cell line panel, 48 h
Structure (SMILES),GI50 [µM],TGI [µM]
Cc1cn(-c2cc(C(=O)Nc3cccc(-n4ccc5c(NC(=O)c6ccccc6)nccc54)c3)cc(C(F)(F)F)c2)cn1,0.291,1.35
COc1cc2cc(Oc3ccc(NC(=O)c4cc(C(F)(F)F)cc(C(F)(F)F)c4)cc3)c(C)nc2cc1OC,1.56,> 50
O=C(Nc1cc(Cl)ccc1O)c1ccc(Nc2ccnc(C(F)(F)F)c2)cc1,2.9,60.8
ClCCN(CCCl)c1ccc(CNc2ccccc2)cc1,9.67,> 100

# Test system: MOLT-4 leukemia
# Assay: DTP human tumour cell line panel, 48 h
Structure (SMILES),GI50 [µM],TGI [µM]
Cc1cn(-c2cc(C(=O)Nc3cccc(-n4ccc5c(NC(=O)c6ccccc6)nccc54)c3)cc(C(F)(F)F)c2)cn1,0.531,10.6
COc1cc2cc(Oc3ccc(NC(=O)c4cc(C(F)(F)F)cc(C(F)(F)F)c4)cc3)c(C)nc2cc1OC,3.71,> 50
O=C(Nc1cc(Cl)ccc1O)c1ccc(Nc2ccnc(C(F)(F)F)c2)cc1,1.75,6.6
ClCCN(CCCl)c1ccc(CNc2ccccc2)cc1,2.81,> 100

# Test system: EKVX NSCLC
# Assay: DTP human tumour cell line panel, 48 h
Structure (SMILES),GI50 [µM],TGI [µM]
Cc1cn(-c2cc(C(=O)Nc3cccc(-n4ccc5c(NC(=O)c6ccccc6)nccc54)c3)cc(C(F)(F)F)c2)cn1,2.32,30.2
COc1cc2cc(Oc3ccc(NC(=O)c4cc(C(F)(F)F)cc(C(F)(F)F)c4)cc3)c(C)nc2cc1OC,2.04,> 50
O=C(Nc1cc(Cl)ccc1O)c1ccc(Nc2ccnc(C(F)(F)F)c2)cc1,2.84,9.63

# Test system: T-47D breast
# Assay: DTP human tumour cell line panel, 48 h
Structure (SMILES),GI50 [µM],TGI [µM]
Cc1cn(-c2cc(C(=O)Nc3cccc(-n4ccc5c(NC(=O)c6ccccc6)nccc54)c3)cc(C(F)(F)F)c2)cn1,1.9,24.2
COc1cc2cc(Oc3ccc(NC(=O)c4cc(C(F)(F)F)cc(C(F)(F)F)c4)cc3)c(C)nc2cc1OC,2.24,> 50
O=C(Nc1cc(Cl)ccc1O)c1ccc(Nc2ccnc(C(F)(F)F)c2)cc1,1.76,6.39
ClCCN(CCCl)c1ccc(CNc2ccccc2)cc1,5.91,> 100

# Test system: K-562 leukemia
# Assay: DTP human tumour cell line panel, 48 h
Structure (SMILES),GI50 [µM],TGI [µM]
Cc1cn(-c2cc(C(=O)Nc3cccc(-n4ccc5c(NC(=O)c6ccccc6)nccc54)c3)cc(C(F)(F)F)c2)cn1,0.292,
COc1cc2cc(Oc3ccc(NC(=O)c4cc(C(F)(F)F)cc(C(F)(F)F)c4)cc3)c(C)nc2cc1OC,2.34,> 50
O=C(Nc1cc(Cl)ccc1O)c1ccc(Nc2ccnc(C(F)(F)F)c2)cc1,2.89,> 100
ClCCN(CCCl)c1ccc(CNc2ccccc2)cc1,8.66,> 100

# Test system: NCI-H460 lung
# Assay: DTP human tumour cell line panel, 48 h
Structure (SMILES),GI50 [µM],TGI [µM]
Cc1cn(-c2cc(C(=O)Nc3cccc(-n4ccc5c(NC(=O)c6ccccc6)nccc54)c3)cc(C(F)(F)F)c2)cn1,0.29,1.2
COc1cc2cc(Oc3ccc(NC(=O)c4cc(C(F)(F)F)cc(C(F)(F)F)c4)cc3)c(C)nc2cc1OC,2.16,> 50
O=C(Nc1cc(Cl)ccc1O)c1ccc(Nc2ccnc(C(F)(F)F)c2)cc1,2.49,6.91
ClCCN(CCCl)c1ccc(CNc2ccccc2)cc1,1.21,> 100

# Test system: SF-268 CNS
# Assay: DTP human tumour cell line panel, 48 h
Structure (SMILES),GI50 [µM],TGI [µM]
Cc1cn(-c2cc(C(=O)Nc3cccc(-n4ccc5c(NC(=O)c6ccccc6)nccc54)c3)cc(C(F)(F)F)c2)cn1,0.514,7.89
COc1cc2cc(Oc3ccc(NC(=O)c4cc(C(F)(F)F)cc(C(F)(F)F)c4)cc3)c(C)nc2cc1OC,> 50,> 50
O=C(Nc1cc(Cl)ccc1O)c1ccc(Nc2ccnc(C(F)(F)F)c2)cc1,3.99,> 100
ClCCN(CCCl)c1ccc(CNc2ccccc2)cc1,4.25,> 100

# Test system: MDA-MB-231 breast
# Assay: DTP human tumour cell line panel, 48 h
Structure (SMILES),GI50 [µM],TGI [µM]
Cc1cn(-c2cc(C(=O)Nc3cccc(-n4ccc5c(NC(=O)c6ccccc6)nccc54)c3)cc(C(F)(F)F)c2)cn1,0.68,3.62
COc1cc2cc(Oc3ccc(NC(=O)c4cc(C(F)(F)F)cc(C(F)(F)F)c4)cc3)c(C)nc2cc1OC,2.55,> 50
O=C(Nc1cc(Cl)ccc1O)c1ccc(Nc2ccnc(C(F)(F)F)c2)cc1,2.11,6.35
ClCCN(CCCl)c1ccc(CNc2ccccc2)cc1,28.5,> 100

# Test system: IGROV1 ovarian
# Assay: DTP human tumour cell line panel, 48 h
Structure (SMILES),GI50 [µM],TGI [µM]
Cc1cn(-c2cc(C(=O)Nc3cccc(-n4ccc5c(NC(=O)c6ccccc6)nccc54)c3)cc(C(F)(F)F)c2)cn1,0.6,23
COc1cc2cc(Oc3ccc(NC(=O)c4cc(C(F)(F)F)cc(C(F)(F)F)c4)cc3)c(C)nc2cc1OC,4.63,> 50
O=C(Nc1cc(Cl)ccc1O)c1ccc(Nc2ccnc(C(F)(F)F)c2)cc1,2.34,8.19
ClCCN(CCCl)c1ccc(CNc2ccccc2)cc1,16,> 100

# Test system: SW-620 colon
# Assay: DTP human tumour cell line panel, 48 h
Structure (SMILES),GI50 [µM],TGI [µM]
Cc1cn(-c2cc(C(=O)Nc3cccc(-n4ccc5c(NC(=O)c6ccccc6)nccc54)c3)cc(C(F)(F)F)c2)cn1,0.39,1.78
COc1cc2cc(Oc3ccc(NC(=O)c4cc(C(F)(F)F)cc(C(F)(F)F)c4)cc3)c(C)nc2cc1OC,4.35,> 50
O=C(Nc1cc(Cl)ccc1O)c1ccc(Nc2ccnc(C(F)(F)F)c2)cc1,3.73,> 100
ClCCN(CCCl)c1ccc(CNc2ccccc2)cc1,10.6,> 100

# Test system: OVCAR-4 ovarian
# Assay: DTP human tumour cell line panel, 48 h
Structure (SMILES),GI50 [µM],TGI [µM]
Cc1cn(-c2cc(C(=O)Nc3cccc(-n4ccc5c(NC(=O)c6ccccc6)nccc54)c3)cc(C(F)(F)F)c2)cn1,1.17,18
COc1cc2cc(Oc3ccc(NC(=O)c4cc(C(F)(F)F)cc(C(F)(F)F)c4)cc3)c(C)nc2cc1OC,4.53,> 50
O=C(Nc1cc(Cl)ccc1O)c1ccc(Nc2ccnc(C(F)(F)F)c2)cc1,3.56,> 100
ClCCN(CCCl)c1ccc(CNc2ccccc2)cc1,16.2,> 100

# Test system: MALME-3M melanoma
# Assay: DTP human tumour cell line panel, 48 h
Structure (SMILES),GI50 [µM],TGI [µM]
Cc1cn(-c2cc(C(=O)Nc3cccc(-n4ccc5c(NC(=O)c6ccccc6)nccc54)c3)cc(C(F)(F)F)c2)cn1,0.502,9.66
COc1cc2cc(Oc3ccc(NC(=O)c4cc(C(F)(F)F)cc(C(F)(F)F)c4)cc3)c(C)nc2cc1OC,> 50,> 50
O=C(Nc1cc(Cl)ccc1O)c1ccc(Nc2ccnc(C(F)(F)F)c2)cc1,1.79,5.49
ClCCN(CCCl)c1ccc(CNc2ccccc2)cc1,21.8,76.8

# Test system: SK-OV-3 ovarian
# Assay: DTP human tumour cell line panel, 48 h
Structure (SMILES),GI50 [µM],TGI [µM]
Cc1cn(-c2cc(C(=O)Nc3cccc(-n4ccc5c(NC(=O)c6ccccc6)nccc54)c3)cc(C(F)(F)F)c2)cn1,0.325,3.53
COc1cc2cc(Oc3ccc(NC(=O)c4cc(C(F)(F)F)cc(C(F)(F)F)c4)cc3)c(C)nc2cc1OC,> 50,> 50
O=C(Nc1cc(Cl)ccc1O)c1ccc(Nc2ccnc(C(F)(F)F)c2)cc1,2.32,7.11
ClCCN(CCCl)c1ccc(CNc2ccccc2)cc1,12,> 100

# Test system: BT-549 breast
# Assay: DTP human tumour cell line panel, 48 h
Structure (SMILES),GI50 [µM],TGI [µM]
Cc1cn(-c2cc(C(=O)Nc3cccc(-n4ccc5c(NC(=O)c6ccccc6)nccc54)c3)cc(C(F)(F)F)c2)cn1,0.72,10
COc1cc2cc(Oc3ccc(NC(=O)c4cc(C(F)(F)F)cc(C(F)(F)F)c4)cc3)c(C)nc2cc1OC,3.02,> 50
O=C(Nc1cc(Cl)ccc1O)c1ccc(Nc2ccnc(C(F)(F)F)c2)cc1,2.21,6.88
ClCCN(CCCl)c1ccc(CNc2ccccc2)cc1,7.2,43

# Source: PubChem BioAssay (NCI)
